The values that follow come from patent US20220372040A1, “METTL3 MODULATORS” (Accent Therapeutics, Inc., priority 2020, published 2022).

In experiment [1] the target is PRMT5-MEP50 (Homo sapiens, UniProt O14744). Description: PRMT5 assay (3H-SAM flashplate scintillation). In kind it is biochemical. As to conditions: PRMT5-MEP50 2.5 nM, histone H4 peptide 100 nM, 3H-SAM 250 nM, 60 min. The method, boiled down: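 Radiometric methyltransferase read-out: after 60 min reaction, excess unlabelled SAM (15 μM) stops turnover and biotinylated H4 peptide (100 nM) carrying 3H-methyl from 250 nM 3H-SAM is captured on streptavidin flashplates (2 h, 25° C) for scintillation counting. Enzyme, 2.5 nM PRMT5-MEP50, was preincubated 5 min with compound in pH 8.0 Tris buffer with DTT and Tween.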

Experiment [2] has as its target METTL1/WDR4 (Homo sapiens, UniProt Q9UBP6). The experiment is described as follows: METTL1 assay (3H-SAM flashplate scintillation). The format is biochemical. The method, boiled down: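 Radiometric methyltransfer by METTL1/WDR4 (6.25 nM f.c., 5 min preincubation) at ambient temperature in HEPES pH 7.5, KCl, MgCl2, DTT; started with 25 nM 3′-biotinylated RNA and 60 nM 3H-SAM, run 20 min, quenched with 15 μM cold SAM. Product captured on streptavidin flashplates (2 h, 25° C), counted by scintillation.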

Experiment [3] has as its target METTL3/METTL14 (Homo sapiens, UniProt Q86U44). Description: METTL3-14 standard enzyme assay (3H-SAM flashplate scintillation). In kind it is biochemical. The following applies: METTL3/METTL14 2.5 nM, RNA 100 nM, 3H-SAM 100 nM, 30 min. The method, boiled down: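 Radiometric methylation readout: biotinylated RNA substrate UCUGGACUAAA and 3H-SAM, each 100 nM final, reacted 30 min at ambient temperature with 2.5 nM enzyme complex after 5 min compound preincubation (HEPES pH 7.5 buffer, KCl, MgCl2, DTT). Excess unlabelled SAM (15 μM) stopped reactions before streptavidin flashplate capture.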

Experiment [4] relates to MOLM-13 cells. Description: MOLM-13 96 Hour cell proliferation assay (Cell Titer-Glo). The format is cell-based. As to conditions: Homo sapiens. As to the method:
MOLM-13 96 Hour Cell Proliferation Assay
MOLM-13 (DSMZ) cells were seeded at 600 cells per well in a volume of 44 μL in a Greiner Bio-One CELLSTAR™ 384 Well Polystyrene Cell Culture clear bottom microplate in RPMI 1640 media containing 10% fetal bovine serum using a Multidrop Combi (ThermoFisher Scientific). Cells were incubated overnight at 37° C. in a humidified tissue culture incubator. To prevent evaporation or to reduce edge effect, add 50 μL or more H2O to an empty plate, cover, and place on top of the cell plates. The Mosquito® HTS Liquid Handler was used to make a compound/media intermediate plate by aliquoting 1 μL of compound from the initial compound dilution plate (concentrations ranging from 10.0 mM to 38.0 nM in 100% DMSO) into Bio-One 384-well polypropylene conical bottom microplate containing 49 μL of media containing the appropriate serum (50-fold dilution, 2% DMSO, compound concentrations ranging from 200.0 μM and […]). The Apricot liquid handling system was used to transfer 6.2 μL compounds from the intermediate plate into the seeding plate containing 44 μL cells (8-fold dilution spanning concentrations 25.0 μM to […], 0.25% DMSO final), and placed in a humidified tissue culture incubator at 37° C. After 96 hours, 25 μL of Cell Titer-Glo reagent (Promega) was added to each well using an Integra liquid handling system. The plate was protected from light using TopSeal-A (Black) film over the entire plate, added White Bottom seal film on the bottom of the entire plate for a better reading on the Envision, and placed on an IKA plate shaker for at 300 rpm for 10 minutes at room temperature. The plate was read on an EnVision plate reader (Perkin Elmer) using the Ultra Sensitive Luminescence protocol. Data analysis was performed by normalizing the raw luminescence units to an average of the positive control values for staurosporine (100% cell death) and the negative control values for DMSO (0% cell death). An IC50 was calculated using a 4-parameter logistic nonlinear regression model in GraphPad Prism.
For orientation: In ATP-based viability assays light output follows the ATP content of the culture.

Experiment [5] has as its system m^6 A in cellular mRNA of MOLM-13 cells. Description: m^6 A-mRNA LC-MS/MS assay (m^6 A cellular assay). In kind it is cell-based. The following applies: Homo sapiens, 24 hours incubation, LC-MS/MS of m^6 A/A in mRNA. On the procedure: m^6 A-mRNA LC-MS/MS Assay
5×10^6 MOLM-13 (DSMZ) cells were seeded into 10 cm dishes in RPMI 1640 media containing 10% fetal bovine serum and placed in a humidified tissue culture incubator at 37° C. overnight. Compounds were resuspended in 100% DMSO and dosed into each dish at a fixed concentration to comprise an 8-point dose response with a 4-fold serial dilution ranging from 25 μM to 1.5 nM in 0.25% DMSO final and allowed to incubate for 24 hours in a humidified tissue culture incubator at 37° C. Cells were harvested by centrifugation followed by mRNA extraction using DTRECT Dynabeads mRNA DTRECT kit (Life Technologies). mRNA was quantified on NanoDrop spectrophotometer (Thermo Fisher Scientific) and digested into single nucleosides using Nucleoside Digestion Mix (New England Biolabs). Nucleosides are quantified with retention time on a BEH […] column (Waters) and the nucleoside-to-base ion mass transition of 282.1-150.1 (m^6 A) and 268-136 (A) on an API 6500+ triple quadrupole mass spectrometer. Quantification is performed in comparison with the standard curve, obtained from pure nucleoside standards (Selleck Chemicals) running with the same batch of samples. Percentage m^6 A in cellular mRNA is calculated as 100*(m^6 A/A).

Experiment [6] addresses T1, METTL16 (Homo sapiens, UniProt Q86W50).
T1 sequence (Q86W50 1-562): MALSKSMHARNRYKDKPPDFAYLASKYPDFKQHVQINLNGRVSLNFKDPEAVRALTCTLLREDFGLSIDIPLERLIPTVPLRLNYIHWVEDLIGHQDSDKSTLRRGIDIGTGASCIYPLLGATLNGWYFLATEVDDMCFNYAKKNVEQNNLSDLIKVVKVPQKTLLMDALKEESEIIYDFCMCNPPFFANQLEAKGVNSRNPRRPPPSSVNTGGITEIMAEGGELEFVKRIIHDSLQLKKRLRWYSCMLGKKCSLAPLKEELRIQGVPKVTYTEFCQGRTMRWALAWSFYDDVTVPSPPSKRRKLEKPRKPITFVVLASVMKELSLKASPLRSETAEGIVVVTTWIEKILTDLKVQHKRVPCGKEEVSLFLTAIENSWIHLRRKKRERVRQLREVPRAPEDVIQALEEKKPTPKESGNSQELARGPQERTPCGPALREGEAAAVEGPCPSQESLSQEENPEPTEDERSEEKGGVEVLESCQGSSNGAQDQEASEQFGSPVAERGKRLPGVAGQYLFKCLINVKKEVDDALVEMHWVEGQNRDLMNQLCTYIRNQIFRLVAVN
Description: METTL16 assay (3H-SAM flashplate scintillation). The format is biochemical. As to conditions: METTL16 100 nM, RNA 50 nM, 3H-SAM 200 nM, SAM 800 nM, 20 min. The method, boiled down:
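Radiometric methyltransferase reaction at ambient temperature in 20 mM HEPES pH 7.5, 50 mM KCl, 1 mM DTT, with 100 nM enzyme preincubated 5 min with compound. It was started with 50 nM 3′-biotinylated RNA, 200 nM 3H-SAM plus 800 nM cold SAM, run 20 min, then quenched with excess cold SAM. Product was captured on streptavidin flashplates and scintillation-counted.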

[7] abbreviates: METTL1/WDR4 6.25 nM, RNA 25 nM, 3H-SAM 60 nM, 20 min, read-out: METTL1 IC50.

Where two headings read alike, the source gives them in different places. Where only a bound is given, the exact number is not on record here.

Chain of METTL1/WDR4 (Q9UBP6 whole entry, species assumed): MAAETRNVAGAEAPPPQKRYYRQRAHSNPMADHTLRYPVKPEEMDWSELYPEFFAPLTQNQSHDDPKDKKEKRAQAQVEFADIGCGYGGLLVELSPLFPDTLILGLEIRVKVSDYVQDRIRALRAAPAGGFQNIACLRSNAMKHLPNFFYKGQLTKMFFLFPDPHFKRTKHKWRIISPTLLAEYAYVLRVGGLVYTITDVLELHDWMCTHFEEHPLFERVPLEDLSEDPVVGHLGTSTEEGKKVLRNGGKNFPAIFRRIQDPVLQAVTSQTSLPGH
Chain of METTL1/WDR4 (P57081 whole entry partner, species assumed): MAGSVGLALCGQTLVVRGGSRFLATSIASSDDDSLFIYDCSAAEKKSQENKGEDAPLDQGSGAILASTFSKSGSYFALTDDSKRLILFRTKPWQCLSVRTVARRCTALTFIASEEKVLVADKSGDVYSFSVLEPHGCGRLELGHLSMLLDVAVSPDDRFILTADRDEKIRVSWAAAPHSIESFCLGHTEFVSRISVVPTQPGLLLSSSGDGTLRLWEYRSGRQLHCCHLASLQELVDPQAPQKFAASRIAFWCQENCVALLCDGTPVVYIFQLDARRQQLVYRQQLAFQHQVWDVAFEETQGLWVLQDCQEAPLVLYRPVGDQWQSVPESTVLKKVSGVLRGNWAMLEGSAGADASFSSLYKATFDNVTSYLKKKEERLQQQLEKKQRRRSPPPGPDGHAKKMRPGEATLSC
Chain of METTL3/METTL14 (Q86U44 whole entry, species assumed): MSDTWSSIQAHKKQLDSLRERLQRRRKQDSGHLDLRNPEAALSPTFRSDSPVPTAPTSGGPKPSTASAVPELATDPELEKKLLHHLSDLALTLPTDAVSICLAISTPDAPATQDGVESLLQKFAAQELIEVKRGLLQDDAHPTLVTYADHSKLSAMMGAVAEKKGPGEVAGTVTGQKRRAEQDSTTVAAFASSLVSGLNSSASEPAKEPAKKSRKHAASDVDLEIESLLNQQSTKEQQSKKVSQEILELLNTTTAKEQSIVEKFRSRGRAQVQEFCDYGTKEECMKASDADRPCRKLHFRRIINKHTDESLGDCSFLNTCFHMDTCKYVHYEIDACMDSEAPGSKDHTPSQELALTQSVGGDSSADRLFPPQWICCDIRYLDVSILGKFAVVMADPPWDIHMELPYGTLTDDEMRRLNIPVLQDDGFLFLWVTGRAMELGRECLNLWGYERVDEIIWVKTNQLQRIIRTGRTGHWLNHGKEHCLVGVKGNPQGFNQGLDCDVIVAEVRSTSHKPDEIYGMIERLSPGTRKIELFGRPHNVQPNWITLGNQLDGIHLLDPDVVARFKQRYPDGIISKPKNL
Chain of METTL3/METTL14 (Q9HCE5 whole entry partner, species assumed): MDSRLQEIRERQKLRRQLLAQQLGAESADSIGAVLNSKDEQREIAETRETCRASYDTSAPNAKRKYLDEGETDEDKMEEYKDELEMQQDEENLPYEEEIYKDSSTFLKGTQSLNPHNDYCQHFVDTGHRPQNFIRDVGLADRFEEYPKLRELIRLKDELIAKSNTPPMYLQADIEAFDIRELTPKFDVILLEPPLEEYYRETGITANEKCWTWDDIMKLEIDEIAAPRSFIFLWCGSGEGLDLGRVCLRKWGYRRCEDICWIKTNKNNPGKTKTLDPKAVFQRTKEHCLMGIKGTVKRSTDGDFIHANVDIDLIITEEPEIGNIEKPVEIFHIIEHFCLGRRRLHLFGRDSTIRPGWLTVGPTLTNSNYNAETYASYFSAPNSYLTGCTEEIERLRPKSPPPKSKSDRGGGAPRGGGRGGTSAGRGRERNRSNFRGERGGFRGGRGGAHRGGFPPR
Chain of PRMT5-MEP50 (O14744 whole entry): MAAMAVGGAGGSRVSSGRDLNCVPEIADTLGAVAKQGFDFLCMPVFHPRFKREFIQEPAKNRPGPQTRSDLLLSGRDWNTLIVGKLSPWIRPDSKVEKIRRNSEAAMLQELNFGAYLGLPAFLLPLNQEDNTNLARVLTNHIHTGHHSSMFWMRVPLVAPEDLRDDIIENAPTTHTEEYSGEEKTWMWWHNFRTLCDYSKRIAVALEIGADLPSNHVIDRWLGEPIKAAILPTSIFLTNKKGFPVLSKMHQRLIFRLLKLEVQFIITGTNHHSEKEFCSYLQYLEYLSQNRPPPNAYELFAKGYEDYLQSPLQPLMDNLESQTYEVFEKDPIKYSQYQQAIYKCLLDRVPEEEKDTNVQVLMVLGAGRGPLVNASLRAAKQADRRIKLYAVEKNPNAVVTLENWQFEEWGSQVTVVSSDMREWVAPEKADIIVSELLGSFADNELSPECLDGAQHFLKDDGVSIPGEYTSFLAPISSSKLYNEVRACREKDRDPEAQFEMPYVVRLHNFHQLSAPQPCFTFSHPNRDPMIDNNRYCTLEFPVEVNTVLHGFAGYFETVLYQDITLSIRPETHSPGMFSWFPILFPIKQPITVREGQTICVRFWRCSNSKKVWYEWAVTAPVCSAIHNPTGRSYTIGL
Chain of PRMT5-MEP50 (Q9BQA1 whole entry partner): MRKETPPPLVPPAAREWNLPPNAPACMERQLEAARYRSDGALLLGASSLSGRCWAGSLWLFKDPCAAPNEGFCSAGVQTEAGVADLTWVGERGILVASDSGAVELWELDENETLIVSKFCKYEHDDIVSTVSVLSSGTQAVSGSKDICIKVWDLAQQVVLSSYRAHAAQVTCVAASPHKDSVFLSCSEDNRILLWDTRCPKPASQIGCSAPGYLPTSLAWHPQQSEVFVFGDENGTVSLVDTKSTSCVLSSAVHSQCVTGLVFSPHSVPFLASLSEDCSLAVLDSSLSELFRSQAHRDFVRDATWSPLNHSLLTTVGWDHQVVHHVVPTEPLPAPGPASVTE

As a reminder, the IC50 is the concentration that gives 50% inhibition. For `CNc1ccc2ccc(OCc3cncc(-n4cc(C5CCCO5)c5c(N)ncnc54)c3)cc2n1` (centres unmarked) [Compound I-97], the IC50 in experiment [1] is greater than 1000 nM; in experiment [2], greater than 1000 nM; in experiment [3] it was less than 10 nM; in experiment [4], less than 1000 nM.

With `CCc1cc(NC)c2ccc(OCc3cncc(-n4cc(-c5ccn(C)n5)c5c(N)ncnc54)c3)cc2n1` [Compound I-135], the concentration for half-maximal inhibition (IC50) is less than 10 nM in experiment [3], less than 1000 nM in experiment [4] and 1000 to 10000 nM in experiment [5].

Consider `CCc1cc(NCCOC)c2ncc(OCc3cncc(-n4cc(-c5ccn(C)n5)c5c(N)ncnc54)c3)cc2n1` [Compound I-138], for which the IC50 was less than 10 nM in experiment [3], less than 1000 nM in experiment [4] and 1000 to 10000 nM in experiment [5].

Regarding `CNc1ccc2ccc(OCc3cncc(-n4cc(Cl)c5c(N)ncnc54)n3)cc2n1` [Compound I-20], the IC50 in experiment [1] is greater than 1000 nM; in experiment [2] (setting [7]), greater than 1000 nM; in experiment [3], less than 10 nM; in experiment [5], 1000 to 10000 nM.

In the case of `Cc1cc(N)c2ccc(OCc3cncc(-n4ccc5c(N)ncnc54)c3)cc2n1` [Compound I-48], the IC50 is greater than 1000 nM in experiment [1], greater than 1000 nM in experiment [6], 100 to 1000 nM in experiment [3] and no less than 10000 nM in experiment [4].

As for `CCc1cc(N(C)CC2CC2)c2ccc(OCc3cncc(-n4cc(-c5ccn(C)n5)c5c(N)ncnc54)c3)cc2n1` [Compound I-137], the values for the IC50 in experiment [3], in experiment [4] and in experiment [5] were less than 10 nM, less than 1000 nM and 1000 to 10000 nM, respectively.

`Nc1ncnc2c1c(Cl)cn2-c1cncc(COc2ccc3ccc(NCC4CC4)nc3c2)c1` [Compound I-55]: the IC50 was greater than 1000 nM in experiment [1], greater than 1000 nM in experiment [6], 100 to 1000 nM in experiment [3] and 1000 to 10000 nM in experiment [4].

For `CCc1cc(N2CCCC2)c2ccc(OCc3cncc(-n4ccc5c(N)ncnc54)c3)cc2n1` [Compound I-109], the results for the 50% inhibitory concentration (IC50) in experiment [1], in experiment [3] and in experiment [4] were greater than 1000 nM, less than 10 nM and less than 1000 nM, respectively.

Regarding `Cn1ccc(-c2cn(-c3cncc(COc4ccc5ccc(N6CC(F)C6)nc5c4)c3)c3ncnc(N)c23)n1` [Compound I-192], the concentration for half-maximal inhibition (IC50) in experiment [1] was greater than 1000 nM; in experiment [3] it was less than 10 nM; in experiment [4], less than 1000 nM.

Consider `CCc1cc(NCCOC)c2ccc(OCc3cncc(-n4cc(COC)c5c(N)ncnc54)c3)cc2n1` [Compound I-231], for which the 50% inhibitory concentration (IC50) in experiment [1] was greater than 1000 nM; in experiment [3] it was less than 10 nM; in experiment [4] it was less than 1000 nM.

On to `CC(C)c1cc(N2CCC2)c2ccc(OCc3cncc(-n4ccc5c(N)ncnc54)c3)cc2n1` [Compound I-99], for which the concentration for half-maximal inhibition (IC50) was greater than 1000 nM in experiment [1], greater than 1000 nM in experiment [2] (setting [7]), less than 10 nM in experiment [3] and less than 1000 nM in experiment [4].

For the compound `CCc1cc(N)c2ccc(OCc3cncc(-n4cc(Cl)c5c(N)ncnc54)c3)cc2n1` [Compound I-52], the half-maximal inhibitory concentration (IC50) was greater than 1000 nM in experiment [1], greater than 1000 nM in experiment [6], less than 10 nM in experiment [3] and no less than 10000 nM in experiment [5].

In the case of `Cn1ccc(-c2cn(-c3cncc(COc4ccc5ccc(N6CC(=O)C6)nc5c4)c3)c3ncnc(N)c23)n1` [Compound I-217], the half-maximal inhibitory concentration (IC50) in experiment [1] is greater than 1000 nM; in experiment [3], less than 10 nM; in experiment [4] it was 1000 to 10000 nM.

As for `Cn1ccc(-c2cn(-c3cncc(COc4ccc5ccc(N6CC(O)C6)nc5c4)c3)c3ncnc(N)c23)n1` [Compound I-193], the concentration for half-maximal inhibition (IC50) was greater than 1000 nM in experiment [1], less than 10 nM in experiment [3] and 1000 to 10000 nM in experiment [4].

As for `CCc1cc(NCCCN(C)C)c2ccc(OCc3cncc(-n4cc(-c5ccn(C)n5)c5c(N)ncnc54)c3)cc2n1` [Compound I-170], the IC50 in experiment [1] is greater than 1000 nM; in experiment [3], less than 10 nM; in experiment [4], less than 1000 nM.

Turning to `CS(=O)(=O)c1cn(-c2cncc(COc3ccc4ccc(N5CCC5)nc4c3)c2)c2ncnc(N)c12` [Compound I-185], the values for the IC50 in experiment [1], in experiment [3] and in experiment [4] were greater than 1000 nM, 10 to 100 nM and 1000 to 10000 nM, respectively.

For `Cn1ccc(-c2cn(-c3cncc(COc4ccc5ccc(N6CC(F)(F)C6)nc5c4)c3)c3ncnc(N)c23)n1` [Compound I-212], the results for the concentration for half-maximal inhibition (IC50) in experiment [1], in experiment [3] and in experiment [4] were greater than 1000 nM, less than 10 nM and 1000 to 10000 nM, respectively.

Consider `Cc1nc(-c2cn(-c3cncc(COc4ccc5ccc(N6CCC6)nc5c4)c3)c3ncnc(N)c23)co1` [Compound I-239], for which the IC50 in experiment [1] is greater than 1000 nM; in experiment [3] it was less than 10 nM; in experiment [4], 1000 to 10000 nM.

On to `CNc1ccc2ccc(CCc3cncc(-n4cc(C5CCCC5)c5c(N)ncnc54)n3)cc2n1` [Compound I-110], for which the IC50 is greater than 1000 nM in experiment [1]; greater than 1000 nM in experiment [6]; greater than 1000 nM in experiment [2] (setting [7]); less than 10 nM in experiment [3]; 1000 to 10000 nM in experiment [5].

Regarding `CCc1cc(N(C)C)c2ccc(OCc3cncc(-n4ccc5c(N)ncnc54)c3)cc2n1` [Compound I-232], the half-maximal inhibitory concentration (IC50) was greater than 1000 nM in experiment [1], 10 to 100 nM in experiment [3] and less than 1000 nM in experiment [4].

Turning to `CC(=O)c1cn(-c2cncc(COc3ccc4ccc(N5CCC5)nc4c3)c2)c2ncnc(N)c12` [Compound I-238], the 50% inhibitory concentration (IC50) in experiment [1] is greater than 1000 nM; in experiment [3] it was less than 10 nM; in experiment [4] it was no less than 10000 nM.
